Laboratory results: paper PMC10943399 (Heliyon, 2024)
Entries after “also recorded” stand apart in the source; their conditions may differ. Like-named read-outs stand apart in the source and are kept apart here.

Key:
[1] = test system: P. falciparum Gombak A (CQ-resistant); test: pLDH antimalarial assay, P. falciparum Gombak A; assay type: cell-based, Plasmodium falciparum; settings: for EC50: 48 h; for Selectivity Index (SI) (CC50MTT/EC50pLDH) P. falciparum Gombak A (CQ-resistant): Vero CC50 / Gombak A EC50
[2] = test system: P. falciparum 3D7 (CQ-sensitive); test: pLDH antimalarial assay, P. falciparum 3D7; assay type: cell-based, Plasmodium falciparum; settings: for Selectivity Index (SI) (CC50MTT/EC50pLDH) P. falciparum 3D7 (CQ-sensitive): Vero CC50 / 3D7 EC50; for antimalarial activity category against CQ-sensitive P. falciparum 3D7: category by EC50 range
P. knowlesi PKA1H1 = test: pLDH antimalarial assay, P. knowlesi A1H1; assay type: cell-based, Plasmodium knowlesi; settings: for EC50: Plasmodium knowlesi, 24 h, read-out: P. knowlesi PKA1H1 EC50 (μM) ± SD; for Selectivity Index (SI) (CC50MTT/EC50pLDH) P. knowlesi PKA1H1: Vero CC50 / PKA1H1 EC50
zebrafish embryos [3] = test: Spontaneous tail coiling; assay type: in vivo, zebrafish (Danio rerio); settings: zebrafish embryos at 24 hpf, 6.25-50 μM, vs 0.1% DMSO
zebrafish embryos [4] = test: Zebrafish embryo acute toxicity; assay type: in vivo, zebrafish (Danio rerio); settings: for effect on early embryonic development: zebrafish embryos at 24 hpf
[5] = test system: transgenic zebrafish line Tg(kdrl:egfp); test: Blood vessel formation in transgenic zebrafish Tg; assay type: in vivo, zebrafish (Danio rerio); settings: 30 hpf
Vero cell (Normal cell) = test: MTT cytotoxicity assay against Vero cells; assay type: cell-based; settings: read-out: Vero cell (Normal cell) CC50 (μM) ± SD, 72 h, three independent experiments
zebrafish larvae = test: Zebrafish cardiotoxicity; assay type: in vivo, zebrafish (Danio rerio); settings: zebrafish larvae at 72 hpf
parasites = settings: mice, dosage of 5 mg/kg, four days after treatment; cited from earlier work
Solubility in egg water = assay type: physicochemical; settings: zebrafish egg water
[6] = Plasmodium falciparum, read-out: P. falciparum Gombak A (CQ-resistant) EC50 (μM) ± SD, pLDH assay, 48 h, three independent experiments
[7] = Plasmodium falciparum, 3D7, 48 h, read-out: P. falciparum 3D7 (CQ-sensitive) EC50 (μM) ± SD, pLDH assay, 48 h, three independent experiments
[8] = read-out: P. falciparum 3D7 (CQ-sensitive) EC50 (μM) ± SD, pLDH assay, 48 h, three independent experiments
[9] = zebrafish, 72 hpf, up to 200 μM
[10] = up to 200 μM, 2 h after treatment

Row | Structure (SMILES) | EC50 [1, 6] | EC50 [2, 7] | EC50 [2, 8] | EC50 (P. knowlesi PKA1H1) | Selectivity Index (SI) (CC50MTT/EC50pLDH) P. falciparum Gombak A (CQ-resistant) [1] | Selectivity Index (SI) (CC50MTT/EC50pLDH) P. falciparum 3D7 (CQ-sensitive) [2] | antimalarial activity category against CQ-sensitive P. falciparum 3D7 [2] | Selectivity Index (SI) (CC50MTT/EC50pLDH) P. knowlesi PKA1H1 (P. knowlesi PKA1H1) | also measured
1 | COc1cc(C=C2CCCC(=Cc3cc(OC)c(OC)c(OC)c3)C2=O)cc(OC)c1OC [MS72C, 2,6-Bis(3,4,5-trimethoxybenzylidene)cyclohexanone] | > 200 µM | > 500 µM | 515.1 ± 4.9 µM | 430.1 ± 2.3 µM | – | – | – | – | –
2 | COc1cccc(C=CC(=O)C=Cc2cccc(OC)c2OC)c1OC [MS33A, 1,5-Bis(2,3-dimethoxyphenyl)penta-1,4-dien-3-one] | 87.5 ± 0.9 µM | – | – | 3.6 ± 0.2 µM | 1.0 | 26.6 | active | 22.9 | mean STC activity (zebrafish embryos [3]): No significant change; effect on early embryonic development (zebrafish embryos [4]; 100 μM (not at 50 μM and lower)): gastrulation defects; heart development (edema) (zebrafish embryos [4]; zebrafish, 72 hpf, 50 μM (not at 25 μM)): heart edema; development of intersegmental vessels (ISVs) ([5]; 50 μM (not at 25 μM)): affected ISVs development; also recorded: inhibitory effects on ISV development; CC50 (Vero cell (Normal cell)): 82.6 ± 1.7 µM; heart rate (zebrafish larvae; 12.5 μM): relatively normal; heart rate (zebrafish larvae; 25 and 50 μM): decrease in heartbeats
3 | COc1cc(/C=C/C(=O)CC(=O)/C=C/c2ccc(O)c(OC)c2)ccc1O [free curcumin, curcumin] | – | – | – | – | – | – | – | – | suppression of parasites (parasites): 40.5%
4 | CCN(CC)CCCC(C)Nc1ccnc2cc(Cl)ccc12 (centres unmarked) [CQ, chloroquine, reference compound] | 5.56 ± 3.2 µM | – | – | – | – | – | – | – | –
5 | COc1cccc(OC)c1C=CC(=O)C=Cc1c(OC)cccc1OC [MS33D, 1,5-Bis(2,6-dimethoxyphenyl)penta-1,4-dien-3-one] | 74.4 ± 2.4 µM | 21.7 ± 0.8 µM | – | 23.7 ± 2.6 µM | 3.0 | 10.4 | – | 9.5 | –
6 | COc1cccc(C=C2CCCC(=Cc3cccc(OC)c3OC)C2=O)c1OC [MS69, 2,6-Bis(2,3-dimethoxybenzylidene)cyclohexanone] | 28.7 ± 2 µM | > 500 µM | 785.8 ± 4.2 µM | 324 ± 5.9 µM | – | – | – | – | –
7 | O=C1C(=Cc2ccccc2F)CCC1=Cc1ccccc1F [MS78, 2,5-Bis(2-fluorobenzylidene)cyclopentanone] | > 200 µM | > 500 µM | 689.1 ± 4.2 µM | 355 ± 7.1 µM | – | – | – | – | –
8 | COc1cc(C=C2CCC(=Cc3cc(OC)c(OC)c(OC)c3)C2=O)cc(OC)c1OC [MS87, 2,5-Bis(3,4,5-trimethoxybenzylidene)cyclopentanone] | 1.85 to 8.75 µM | 10.8 ± 1.3 µM | – | 11.4 ± 0.9 µM | 304.9 | 52.2 | active | 49.5 | EC50 ([1]; read-out: P. falciparum Gombak A (CQ-resistant) EC50 (μM) ± SD, pLDH assay, three independent experiments): 1.85 ± 2.8 µM; solubility in egg water (Solubility in egg water): problems with solubility in egg water
9 | O=C(C=Cc1cccc(Cl)c1)C=Cc1cccc(Cl)c1 [MS40B, 1,5-Bis(3-chlorophenyl)penta-1,4-dien-3-one] | 45.6 ± 1.3 µM | 13.7 ± 0.8 µM | – | 16.6 ± 0.5 µM | 3.6 | 12.0 | active | 9.9 | –
10 | O=C1C(=Cc2ccccc2Cl)CCCC1=Cc1ccccc1Cl [MS47, 2,6-Bis(2-chlorobenzylidene)cyclohexanone] | 51.4 ± 2.7 µM | 16.1 ± 0.5 µM | – | 21.7 ± 1.2 µM | 3.3 | 10.6 | active | 7.9 | –
11 | O=C1C(=Cc2cccc(F)c2)CCC1=Cc1cccc(F)c1 [MS79, 2,5-Bis(3-fluorobenzylidene)cyclopentanone] | > 200 µM | > 500 µM | 329.3 ± 2.6 µM | 195 ± 2.7 µM | – | – | – | – | –
12 | COc1cc(C=CC(=O)C=Cc2cc(OC)c(OC)c(OC)c2)cc(OC)c1OC [MS34C, 1,5-Bis(3,4,5-trimethoxyphenyl)penta-1,4-dien-3-one] | – | – | – | 11.8 ± 1.1 µM | 15.4 | 84.0 | active | 11.4 | mean STC activity (zebrafish embryos [3]): No significant change; effect on early embryonic development (zebrafish embryos [4]; up to 200 μM): no significant effect; morphological changes / heart development (zebrafish embryos [4]; [9]): no detectable morphological changes; also recorded: no effect on normal heart development; development of intersegmental vessels (ISVs) ([5]; up to 200 μM): no effect on normal vessel development; also recorded: no significant difference; CC50 (Vero cell (Normal cell)): 134 ± 3.2 µM; heart rate (zebrafish larvae; [10]): no obvious abnormalities; also recorded: normal heart beats
13 | COc1ccc(OC)c(C=CC(=O)C=Cc2cc(OC)ccc2OC)c1 [MS33C, 1,5-Bis(2,5-dimethoxyphenyl)penta-1,4-dien-3-one] | 56.2 ± 1.3 µM | < 5 µM | 2.5 ± 0.4 µM | 5.1 ± 0.2 µM | 2.9 | 65.2 | active | 32.0 | mean STC activity (zebrafish embryos [3]): No significant change; effect on early embryonic development (zebrafish embryos [4]; up to 200 μM): no significant effect; morphological changes / heart development (zebrafish embryos [4]; [9]): no detectable morphological changes; also recorded: no effect on normal heart development; development of intersegmental vessels (ISVs) ([5]; up to 200 μM): no effect on normal vessel development; also recorded: no significant difference; CC50 (Vero cell (Normal cell)): 163 ± 1.8 µM; heart rate (zebrafish larvae; [10]): no obvious abnormalities; also recorded: normal heart beats
14 | COc1ccc(C=C2CCCC(=Cc3ccc(OC)c(OC)c3OC)C2=O)c(OC)c1OC [MS72A, 2,6-Bis(2,3,4-trimethoxybenzylidene)cyclohexanone] | > 200 µM | > 500 µM | 530 ± 3.6 µM | 507.5 ± 1.3 µM | – | – | – | – | –
